Measured values: patent publication US7285546B2, “Cephalotaxanes, their method of preparation and their use in treatment of cancers, leukemias, parasites including those resistant to usual chemotherapeutic agents and as reversal agents” (Stragen Pharma S.A., priority 2000, dated 2007)
Converted amounts (≈) assume the structure as drawn.

These compounds were tested on K562 cell line (assay: MTT test of structural analogues of harringtonines on K562 cell line). Conditions: Homo sapiens, K562, 72 h.
Type: cell-based
Protocol: Structural analogues of harringtonines described in this invention were tested on K562 cell line, derived from chronic myeloid leukemia cells in blastic transformation (bcr-abl positive). The cell line was purchased from ATCC (American Tissue Culture Collection) and grown in RPMI medium supplemented with 10% heat-inactivated fetal calf serum, 2 mmol/L glutamine, […] penicillin and […] streptomycin. All tested products were initially dissolved in […] (pH=2), supplemented with ultrasound treatment during 1 h. Working concentrations were made by dilution in culture medium (pH around 7). Cells in exponential growth phase were placed into 96-microwell plates in concentration 3×10^4/mL (total volume 200 μL/well) and incubated with drugs for 72 h at 37° C. in 5% CO2 humidified atmosphere. Following incubation, 2 μL of MTT solution (Sigma, St. Louis, Mo.) was added to each well. During the following 6 h of incubation at 37° C., the purple formazan product was formed by conversion of the yellow MTT salt in the mitochondria of the viable cells. The resulting precipitate was dissolved in DMSO and the amount of converted MTT was quantified in an ELISA reader (MR 5000, Dynatech). Each product was tested in triplicate (3×8 wells). Every test contained at least one plate with HHT as control, added in the same concentration as the tested products.
Compound `COC1=C[C@]23CCCN2CCc2cc4c(cc2[C@@H]3[C@@H]1O)OCO4` [CEPHALOTAXINE (CTX), cephalotaxine, reference compound] has an IC50 of 2 µg/mL (≈ 6.34 µM). `CCOC(=O)C[C@](O)(CCCC(C)(C)O)C(=O)OC1C(OC)=C[C@@]23CCCN2CCc2cc4c(cc2[C@H]13)OCO4` (stereo partly drawn) [Example 25, (2′R)-4′-ethyl-4′-demethyl-homoharringtonine] gave an IC50 of 0.041 µg/mL (≈ 0.0733 µM). With `COC1=C[C@]23CCCN2CCc2cc4c(cc2[C@@H]3C1OC(=O)[C@@](O)(CCCC(C)(C)O)CC(=O)OC(C)C)OCO4` (stereo partly drawn) [Example 27, (2′R)-4′-isopropyl-4′-demethyl-homoharringtonine] the IC50 was 0.08 µg/mL (≈ 0.139 µM). For `COC1=C[C@@]23CCCN2CCc2cc4c(cc2[C@@H]3C1OC(=O)[C@@](O)(CCCC(C)(C)O)CC(=O)SC)OCO4` (stereo partly drawn) [Example 30, (2′R)-4′-methylthio-4′-demethoxy-homoharringtonine], the IC50 was 0.05 µg/mL (≈ 0.089 µM). Compound `CCSC(=O)C[C@](O)(CCCC(C)(C)O)C(=O)OC1C(OC)=C[C@@]23CCCN2CCc2cc4c(cc2[C@H]13)OCO4` (stereo partly drawn) [Example 32, (2′R)-4′-ethylthio-4′-demethoxy-homoharringtonine] has an IC50 of 0.08 µg/mL (≈ 0.139 µM). In the case of `COC1=C[C@@]23CCCN2CCc2cc4c(cc2[C@@H]3C1OC(=O)[C@@](O)(CCCC(C)(C)O)CC(=O)SC(C)C)OCO4` (stereo partly drawn) [Example 34, (2′R)-4′-isopropylthio-4′-demethoxy-homoharringtonine], the IC50 is reported as 0.05 µg/mL (≈ 0.0848 µM). Compound `COC1=C[C@@]23CCCN2CCc2cc4c(cc2[C@@H]3C1OC(=O)[C@@](O)(CCCC(C)(C)O)CC(=O)SC(C)(C)C)OCO4` (stereo partly drawn) [Example 36, (2′R)-4′-tert-butylthio-4′-demethoxy-homoharringtonine] has an IC50 of 0.02 µg/mL (≈ 0.0331 µM). `COC1=C[C@@]23CCCN2CCc2cc4c(cc2[C@@H]3C1OC(=O)[C@@](O)(CCCC(C)(C)O)CC(=O)OCC=C(C)C)OCO4` (stereo partly drawn) [Example 39, (2′R)-4′-(3-methyl-2-butenyl)-4′-demethyl-homoharringtonine] showed an IC50 of 0.028 µg/mL (≈ 0.0467 µM). `C=CCOC(=O)C[C@](O)(CCCC(C)(C)O)C(=O)OC1C(OC)=C[C@@]23CCCN2CCc2cc4c(cc2[C@H]13)OCO4` (stereo partly drawn) [Example 40, (2′R)-4′-(2-propenyl)-4′-demethyl-homoharringtonine] showed an IC50 of 0.0145 µg/mL (≈ 0.0254 µM). With `CC#CCOC(=O)C[C@](O)(CCCC(C)(C)O)C(=O)OC1C(OC)=C[C@@]23CCCN2CCc2cc4c(cc2[C@H]13)OCO4` (stereo partly drawn) [Example 42, (2′R)-4′-(2-butynyl)-4′-demethyl-homoharringtonine] the IC50 was 0.0105 µg/mL (≈ 0.018 µM). Work on `COC1=C[C@@]23CCCN2CCc2cc4c(cc2[C@@H]3C1OC(=O)[C@@](O)(CCCC(C)(C)O)CC(=O)OCC(F)(F)F)OCO4` (stereo partly drawn) [Example 48, (2′R)-4′-(2,2,2-trifluoroethyl)-4′-demethyl-homoharringtonine] yielded an IC50 of 0.1 µg/mL (≈ 0.163 µM). With `COC1=C[C@@]23CCCN2CCc2cc4c(cc2[C@@H]3C1OC(=O)[C@@](O)(CCCC(C)(C)O)CC(=O)OCC1CC1)OCO4` (stereo partly drawn) [Example 49, (2′R)-4′-cyclopropylmethyl-4′-demethyl-homoharringtonine] the IC50 was 0.07 µg/mL (≈ 0.12 µM). Compound `CCCCOC(=O)C[C@](O)(CCCC(C)(C)O)C(=O)OC1C(OC)=C[C@@]23CCCN2CCc2cc4c(cc2[C@H]13)OCO4` (stereo partly drawn) [Example 50, (2′R)-4′-butyl-4′-demethyl-homoharringtonine] has an IC50 of 0.013 µg/mL (≈ 0.0221 µM). `CCCOC(=O)C[C@](O)(CCCC(C)(C)O)C(=O)OC1C(OC)=C[C@@]23CCCN2CCc2cc4c(cc2[C@H]13)OCO4` (stereo partly drawn) [Example 51, (2′R)-4′-propyl-4′-demethyl-homoharringtonine] was tested, and the IC50 was 0.0225 µg/mL (≈ 0.0392 µM). Compound `COC1=C[C@@]23CCCN2CCc2cc4c(cc2[C@@H]3C1OC(=O)[C@@](O)(CCCC(C)(C)O)CC(=O)OCC(C)C)OCO4` (stereo partly drawn) [Example 52, (2′R)-4′-isobutyl-4′-demethyl-homoharringtonine] has an IC50 of 0.024 µg/mL (≈ 0.0408 µM). `CCCCCCOC(=O)C[C@](O)(CCCC(C)(C)O)C(=O)OC1C(OC)=C[C@@]23CCCN2CCc2cc4c(cc2[C@H]13)OCO4` (stereo partly drawn) [Example 54, (2′R)-4′-hexyl-4′-demethyl-homoharringtonine] showed an IC50 of 0.005 µg/mL (≈ 0.00812 µM). Compound `CC=CCOC(=O)C[C@](O)(CCC(C)(C)O)C(=O)OC1C(OC)=C[C@@]23CCCN2CCc2cc4c(cc2[C@H]13)OCO4` (stereo partly drawn) [Example 55, (2′R)-4′-(but-2-enyl)-4′-demethyl-harringtonine] has an IC50 of 0.014 µg/mL (≈ 0.0245 µM). For `CC=CCOC(=O)C[C@](O)(CCCC(C)(C)O)C(=O)OC1[C@H]2c3cc4c(cc3[C@@H]3CN5CCC[C@@]25C[C@@]1(OC)O3)OCO4` (stereo partly drawn) [Example 56, 4-(2-butenyl) (2R)-2-hydroxy-2-(4-hydroxy-4-methylpentyl)succinate of (−)-drupacine], the IC50 was 0.0135 µg/mL (≈ 0.0224 µM). Work on `COC(=O)C[C@](O)(CCC(C)(C)F)C(=O)OC1C(OC)=C[C@@]23CCCN2CCc2cc4c(cc2[C@H]13)OCO4` (stereo partly drawn) [Example 59, (2′R)-3″-Fluoro-3″-deoxy-harringtonine] yielded an IC50 of 0.0135 µg/mL (≈ 0.0253 µM). In the case of `COC(=O)C[C@](O)(CCC=C(C)C)C(=O)OC1C(OC)=C[C@@]23CCCN2CCc2cc4c(cc2[C@H]13)OCO4` (stereo partly drawn) [Example 61, 4-methyl (2R)-2-hydroxy-2-(4-methyl-pent-3-enyl)succinate of (−)-cephalotaxine], the IC50 is reported as 0.0175 µg/mL (≈ 0.0332 µM). `CCCCCCCOC(=O)C[C@](O)(CCCC(C)(C)O)C(=O)OC1C(OC)=C[C@@]23CCCN2CCc2cc4c(cc2[C@H]13)OCO4` (stereo partly drawn) [Example 66, (2′R)-4′-heptyl-4′-demethyl-homoharringtonine] showed an IC50 of 0.003 µg/mL (≈ 0.00476 µM). `CCCCCCCCOC(=O)C[C@](O)(CCCC(C)(C)O)C(=O)OC1C(OC)=C[C@@]23CCCN2CCc2cc4c(cc2[C@H]13)OCO4` (stereo partly drawn) [Example 67, (2′R)-4′-octyl-4′-demethyl-homoharringtonine] showed an IC50 of 0.009 µg/mL (≈ 0.014 µM). For `CCC(C)COC(=O)C[C@](O)(CCCC(C)(C)O)C(=O)OC1C(OC)=C[C@@]23CCCN2CCc2cc4c(cc2[C@H]13)OCO4` (stereo partly drawn) [Example 69, (2′R)-4′-(methyl-2-butyl)-4′-demethyl-homoharringtonine], the IC50 was 0.029 µg/mL (≈ 0.0482 µM). Work on `COC1=C[C@@]23CCCN2CCc2cc4c(cc2[C@@H]3C1OC(=O)[C@@](O)(CCCC(C)(C)O)CC(=O)OCc1ccc(C)cc1)OCO4` (stereo partly drawn) [Example 72, (2′R)-4′-p-methylbenzyl-4′-demethyl-homoharringtonine] yielded an IC50 of 0.006 µg/mL (≈ 0.00944 µM). `COC1=C[C@@]23CCCN2CCc2cc4c(cc2[C@@H]3C1OC(=O)[C@@](O)(CCCC(C)(C)O)CC(=O)OCc1cccc(C)c1)OCO4` (stereo partly drawn) [Example 73, (2′R)-4′-m-methylbenzyl-4′-demethyl-homoharringtonine] showed an IC50 of 0.004 µg/mL (≈ 0.00629 µM). Work on `COC1=C[C@@]23CCCN2CCc2cc4c(cc2[C@@H]3C1OC(=O)[C@@](O)(CCCC(C)(C)O)CC(=O)OCCCCCO)OCO4` (stereo partly drawn) [Example 74, (2′R)-4′-(5-hydroxypentyl)-4′-demethyl-homo harringtonine] yielded an IC50 of 0.024 µg/mL (≈ 0.0389 µM). In the case of `COCCOC(=O)C[C@](O)(CCCC(C)(C)O)C(=O)OC1C(OC)=C[C@@]23CCCN2CCc2cc4c(cc2[C@H]13)OCO4` (stereo partly drawn) [Example 78, (2′R)-4′-(2-methoxyethoxy)-4′-demethyl-homoharringtonine], the IC50 is reported as 0.012 µg/mL (≈ 0.0203 µM). In the case of `COC1=C[C@@]23CCCN2CCc2cc4c(cc2[C@@H]3C1OC(=O)[C@@](O)(CCCC(C)(C)O)CC(=O)Oc1ccccc1)OCO4` (stereo partly drawn) [Example 79, (2′R)-4′-phenoxy-4′-demethylhomoharringtonine], the IC50 is reported as 0.01 µg/mL (≈ 0.0165 µM). Compound `COC1=C[C@@]23CCCN2CCc2cc4c(cc2[C@@H]3C1OC(=O)[C@@](O)(CCCC(C)(C)O)CC(=O)OCCOCc1ccccc1)OCO4` (stereo partly drawn) [Example 80, (2′R)-4′-(2-benzyloxyethoxy)-4′-demethyl-homoharringtonine] has an IC50 of 0.025 µg/mL (≈ 0.0375 µM). `COC1=C[C@@]23CCCN2CCc2cc4c(cc2[C@@H]3C1OC(=O)[C@@](O)(CCCC(C)(C)O)CC(=O)OCc1cccc2ccccc12)OCO4` (stereo partly drawn) [Example 81, (2′R)-4′-(1-naphtalenemethoxy)-4′-demethyl-homoharringtonine] showed an IC50 of 0.008 µg/mL (≈ 0.0119 µM). Work on `COC1=C[C@@]23CCCN2CCc2cc4c(cc2[C@@H]3C1OC(=O)[C@@](O)(CCCC(C)(C)O)CC(=O)OCc1cccs1)OCO4` (stereo partly drawn) [Example 82, (2′R)-4′-(2-thiophenemethoxy)-4′-demethyl-homoharringtonine] yielded an IC50 of 0.005 µg/mL (≈ 0.00796 µM).

Same assay, conditions: Homo sapiens; K562 cell line, 72 h incubation, MTT; read-out: IC50
In the case of `[2H]C([2H])([2H])OC(=O)C[C@](O)(CCCC(C)(C)O)C(=O)OC1C(OC)=C[C@@]23CCCN2CCc2cc4c(cc2[C@H]13)OCO4` (stereo partly drawn) [Example 75, (2′R)-(4′-^2H3)homoharringtonine], the IC50 is reported as 0.025 µg/mL (≈ 0.0456 µM). Compound `[2H]COC(=O)C[C@](O)(CCCC(C)(C)O)C(=O)OC1C(OC)=C[C@@]23CCCN2CCc2cc4c(cc2[C@H]13)OCO4` (stereo partly drawn) [Example 76, (2′R)-(4′-^2H)homoharringtonine] has an IC50 of 0.018 µg/mL (≈ 0.0329 µM).

Same assay, conditions: K562 cell line, 72 h incubation, MTT
In the case of “4-(hexa-2,4-dienyl) (2R)-2-hydroxy-2-(4-hydroxy-4-methylpentyl)succinate of (−)-drupacine [Example 57]”, the IC50 is reported as 0.009 µg/mL. With `CC=CCOC(=O)C[C@](O)(CCCC(C)(C)O)C(=O)O[C@@H]1C(OC)=C[C@]23CCCN2CCc2cc4c(cc2[C@H]13)OCO4` [Example 37, (2′R)-4′-(but-2-enyl)-4′-demethyl-homoharringtonine] the IC50 was 0.0125 µg/mL (≈ 0.0213 µM). With `C=C(C)COC(=O)C[C@](O)(CCCC(C)(C)O)C(=O)O[C@@H]1C(OC)=C[C@]23CCCN2CCc2cc4c(cc2[C@H]13)OCO4` [Example 41, (2′R)-4′-(2-methyl-2-propenyl)-4′-demethyl-homoharringtonine] the IC50 was 0.0085 µg/mL (≈ 0.0145 µM). With `CC=CCCCOC(=O)C[C@](O)(CCCC(C)(C)O)C(=O)O[C@@H]1C(OC)=C[C@]23CCCN2CCc2cc4c(cc2[C@H]13)OCO4` [Example 53, (2′R)-4′-(hex-4-enyl)-4′-demethyl-homoharringtonine] the IC50 was 0.0085 µg/mL (≈ 0.0138 µM).
